Laboratory results: patent US10908147B2, “Methods of identifying modulators of olfactory receptors” (priority 2013, dated 2021)
“Also recorded” adds a separate entry of the source. Read-outs that look alike come from different tables or passages of the source.

Key:
[1] = test system: cultured taste papillae cells obtained from M129 mice; test: Calcium imaging of cultured wild mouse (m129) taste papillae cells; assay type: cell-based; settings: fura-2 calcium imaging; odorants at optimal concentration 100 uM; wild (m129) mouse taste cell cultures
Protocol: (§1) Circumvallate and foliate papillae obtained from wild (m129), I7, M71 and Eugenol transgenic mice were isolated according to previously published procedure (Ozdener et al., 2006, cited above). Briefly, mouse taste papillae were removed by injecting the mixture of enzyme (pronase, 1 mg/ml Sigma and elastase 1 mg/ml Sigma) and immediately placed into an isolation solution followed by enzymatic digestion. Digested taste papillae tissue were then gently minced with a surgical razor and seeded on collagen type-1 coated coverslips and incubated at 36° C. in a humidified environment containing 5% CO2.
Changes in intracellular calcium levels in response to stimuli were measured. Cultured human fungiform and mice taste papillae cells were seeded on 15 mm coverslips. Cells were loaded with […] Fura-2 AM (Molecular Probes Inc.) in 10 mg/mL Pluronic® F127 (Molecular Probes Inc.) in modified Ringer solution for 1 hour at 36° C. Individual odors, bitter mixture [phenylthiocarbamide (PTC, 2 mM) and Denatonium (2 mM), Salicin (5 mM)]; and Mix A [cAMP-producing odors in rat biochemical assays (Breer and Boekhoff, 1991, Chem. Senses, 16(1): 19-29, and Restrepo et al., 1993, J. Gen. Physiol., 102:907-924); both of which are incorporated herein by reference] (100 mM): hedione, geraniol, phenylethyl alcohol, citralva, citronellal, and eugenol,]; and Mix B [IP3-producing odors in rat biochemical assays (Breer and Boekhoff, 1991 and Restrepo et al 1993)] (100 mM): lyral, lilial, triethylamine, ethyl vanillin, isovaleric acid, and phenylethyl amine]) was diluted in Ringer, which was prepared with pH adjusted to 7.2 and osmolality adjusted to 300 mmol/kg. A coverslip was placed into a p4 chamber system with the delivery and waste pipes attached to the chamber. […] Following image acquisition, regions of interest (ROIs) on the cells along with a background control region were selected to be measured for fluorescence ratios and intensity values. […] Ratio data for the cells were subsequently analyzed on Excel to determine which cells had responded with a significant change in intracellular calcium. […]

[2] = test system: cultured fungiform taste papillae (HBO) cells obtained from human tongue; test: Calcium imaging of cultured human fungiform taste papillae (HBO) cells; assay type: cell-based; settings: fura-2 calcium imaging, odorants at optimal concentration 100 uM
Protocol: The human fungiform papillae cells were cultured according to published protocols (Ozdener et al., Chem Senses. 2006 March; 31(3): 279-90; Ozdener et al., In Vitro Cellular & Developmental Biology—Animal. September 2011, 47(8): 513-14; each of which is incorporated herein by reference). Briefly, human fungiform taste papillae were removed and immediately placed into an isolation solution [26 mM NaHCO3, 2.5 mM NaH2PO4, 20 mM glucose, 65 mM NaCl, 20 mM KCl, and 1 mM ethylenediaminetetraacetic acid (EDTA)] followed by enzymatic digestion with pronase E and elastase. Digested fungiform papillae were then gently minced with a surgical razor and seeded on collagen type-1 coated coverslips and incubated at 36° C. in a humidified environment containing 5% CO2. The human fungiform taste papillae were cultured in Iscove's Modified Dulbecco's medium containing 10% fetal bovine serum, 1:5 ratio of MCDB 153, and a triple cocktail of antibiotics (100 U/mL/100 μg/mL, penicillin/streptomycin, and 0.5 μg/mL fungizone). Human fungiform taste papillae cells have been maintained in culture for a period of more than 1 year without loss of viability and with retention of the molecular and biochemical properties of acutely isolated taste cells.
(§2) Changes in intracellular calcium levels in response to stimuli were measured. Cultured human fungiform and mice taste papillae cells were seeded on 15 mm coverslips. Cells were loaded with […] Fura-2 AM (Molecular Probes Inc.) in 10 mg/mL Pluronic® F127 (Molecular Probes Inc.) in modified Ringer solution for 1 hour at 36° C. Individual odors, bitter mixture [phenylthiocarbamide (PTC, 2 mM) and Denatonium (2 mM), Salicin (5 mM)]; and Mix A [cAMP-producing odors in rat biochemical assays (Breer and Boekhoff, 1991, Chem. Senses, 16(1): 19-29, and Restrepo et al., 1993, J. Gen. Physiol., 102:907-924); both of which are incorporated herein by reference] (100 mM): hedione, geraniol, phenylethyl alcohol, citralva, citronellal, and eugenol,]; and Mix B [IP3-producing odors in rat biochemical assays (Breer and Boekhoff, 1991 and Restrepo et al 1993)] (100 mM): lyral, lilial, triethylamine, ethyl vanillin, isovaleric acid, and phenylethyl amine]) was diluted in Ringer, which was prepared with pH adjusted to 7.2 and osmolality adjusted to 300 mmol/kg. A coverslip was placed into a p4 chamber system with the delivery and waste pipes attached to the chamber. This allowed for a stable and constant flow of liquid in and out of the chamber. The cells were visualized with an inverted florescence microscope using an excitation wavelength of 380 nm. Stimulus selection and delivery, focusing, and image acquisition were done using PTI software. Following image acquisition, regions of interest (ROIs) on the cells along with a background control region were selected to be measured for fluorescence ratios and intensity values. Cultured taste papillae cells were first washed for 1-3 min with Ringer, and then stimuli delivery was initiated. Each stimulus was delivered for 30 sec-1 min followed by an approximately 2 min wash out period with Ringer. Ratio data for the cells were subsequently analyzed on Excel to determine which cells had responded with a significant change in intracellular calcium. After calcium imaging, coverslips were fixed with 4% PFA for 10 min and washed 3× with PBS.

[3] = test system: immortalized human fungiform taste papillae (Ulduz) cells; test: Odor response of immortalized human fungiform taste papillae (Ulduz) cells; assay type: cell-based
Protocol: as §2
In a similar manner, immortalized human fungiform taste papillae (Ulduz) cells, responded to receptor specific odors, heptaldehyde, acetophenone, methyl cinnamon, eugenol and lyral.

[4] = test system: cultured taste papillae cells obtained from mOR-M71-GFP ("M71") mice; test: Calcium imaging of cultured taste papillae cells from mOR-M71-GFP mice; assay type: cell-based; settings: fura-2 calcium imaging; odorants at optimal concentration 100 uM; mOR-M71-GFP mouse taste cell cultures
Protocol: as §1
(§3) Changes in intracellular calcium levels in response to stimuli were measured. Cultured human fungiform and mice taste papillae cells were seeded on 15 mm coverslips. Cells were loaded with […] Fura-2 AM (Molecular Probes Inc.) in 10 mg/mL Pluronic® F127 (Molecular Probes Inc.) in modified Ringer solution for 1 hour at 36° C. […] Following image acquisition, regions of interest (ROIs) on the cells along with a background control region were selected to be measured for fluorescence ratios and intensity values. […] Ratio data for the cells were subsequently analyzed on Excel to determine which cells had responded with a significant change in intracellular calcium. […]

[5] = test system: olfactory receptor ORS6 (also Olfr544); test: Calcium imaging of HBO cells transiently transfected with ORS6; assay type: cell-based, mouse; settings: HBO cells transfected with ORS6 plus chaperone DNA (RTP1S and M3); 30 or 100 micromolar
[6] = target: T1, olfactory receptor OR240 (also OR7D4) (Homo sapiens, UniProt Q8NG98); test: Calcium imaging of HBO cells transiently transfected with OR7D4; assay type: cell-based; settings: HBO cells transfected with OR7D4/OR240 plus chaperone DNA (RTP1S and M3); 30 or 100 micromolar
T1 construct: expressed in transfected cells; host or cells: cultured human taste papillae (HBO) cells, Lipofectamine 2000, transient
T1 sequence (Q8NG98 1-312): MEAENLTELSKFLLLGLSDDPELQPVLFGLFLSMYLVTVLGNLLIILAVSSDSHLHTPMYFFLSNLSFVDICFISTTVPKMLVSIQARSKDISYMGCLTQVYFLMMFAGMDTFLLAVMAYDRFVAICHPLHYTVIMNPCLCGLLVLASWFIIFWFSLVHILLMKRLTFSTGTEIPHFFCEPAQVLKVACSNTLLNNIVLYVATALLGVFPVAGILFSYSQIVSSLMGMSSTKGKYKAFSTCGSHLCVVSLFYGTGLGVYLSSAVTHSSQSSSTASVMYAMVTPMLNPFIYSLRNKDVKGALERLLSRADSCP

[7] = test system: cultured taste papillae cells obtained from mOR-EG-GFP ("mEUG") mice; test: Calcium imaging of cultured taste papillae cells from mOR-EG-GFP mice; assay type: cell-based; settings: fura-2 calcium imaging; odorants at optimal concentration 100 uM; mOR-EG-GFP mouse taste cell cultures
Protocol: as §1, §3

Structure (SMILES)	response to stimulus (change in intracellular calcium) [1]	response to stimulus (change in intracellular calcium [Ca2+]i) [2]	response to receptor specific odor [3]	other results
CC(=O)c1ccccc1 [acetophenone]	responded; also recorded: sensitive	sensitive	respond	response to stimulus (change in intracellular calcium) [4]: exhibited a response; also recorded: respond; also recorded: responsive
CCCCCC(=O)O [hexanoic acid]	–	sensitive	–	–
O=C(O)CCCCCCCC(=O)O [Nonanedionic acid]	–	–	–	calcium response to receptor specific odor [5]: response occurred
CCCCCCC=O [heptanal]	–	sensitive	–	response to receptor specific odor ([3]; listed as heptaldehyde): respond
O=Cc1ccccc1 [benzaldehyde]	responded; also recorded: sensitive	–	–	response to stimulus (change in intracellular calcium) [4]: respond
C[C@@]12CCC[C@H]1[C@@H]1CC[C@H]3CC(=O)CC[C@]3(C)[C@H]1CC2 [Androstanone]	–	–	–	calcium response to receptor specific odor [6]: response occurred
O=c1ccc2ccccc2o1 [coumarin]	–	sensitive	–	–
C=CCc1ccc(O)c(OC)c1 [eugenol]	sensitive	sensitive	respond	response to stimulus (change in intracellular calcium) [7]: respond; also recorded: responsive
COC(=O)/C=C/c1ccccc1 [methyl cinnamon]	–	–	respond	–
CC(C)(O)CCCC1=CCC(C=O)CC1 (stereo not shown) [lyral]	–	sensitive	respond	–
